Results published in US8822549B2, “Buffered oxygen therapeutic” (priority 2011, dated 2014).

How the values were obtained:
hypoxic tumors [1] = assay: Published studies: fluorocarbons as O2 delivery agents to sensitize hypoxic tumors to radiation therapy; assay type: in vivo; conditions: versus the liquid fluorocarbons fluosol and perfluoroctylbromide
Experimental: In these studies, fluorocarbons were administered systemically and oxygen was administered via inhalation to sensitize hypoxic tumors to radiation therapy. PFOB was effective at less than 1/100th the dose of the liquid fluorocarbons fluosol and […].

hypoxic tumors [2] = conditions: administered systemically, oxygen via inhalation; published studies; cited from earlier work

## FC(F)(F)C(F)(F)C(F)(F)C(F)(F)C(F)(F)C(F)(F)C(F)(F)C(F)(F)Br [PFOB, perfluoroctylbromide]
Hypoxic tumors [1]
  effective dose as a fraction of the dose of liquid fluorocarbons: less than 1/100
Hypoxic tumors [2]
  Volume (dose as O2 delivery agent): 0.002 to 0.015 L/kg
  g/kg (fluorocarbon dose as O2 delivery agent): 2 to 15 g/kg
